The source of these data is patent US8338420B1, “Treatment of Parkinson's disease and enhancement of dopamine signal using PDE 10 inhibitor” (Mitsubishi Tanabe Pharma Corporation, priority 2002, dated 2012).

pIC50: −log10 of the molar value.

In one test the target is T1, PDE8 (PDE8A) (Homo sapiens, UniProt O60658).
T1 construct: His tag (hexahistidine, pcDNA4/HisMax) (N); made in house
In words: PDE assay, recombinant human PDE8A. The test is classed as biochemical. The settings on record: substrate about 4.8 nM [3H]-cAMP and 0.1 μM cAMP. The text has this: Based on the information of cDNA sequence of human PDE7A (Genbank/EMBL Accession No. NM002603), a cDNA encoding human PDE7A was cloned by PCR method, according to a method described in Sasaki et al. (Sasaki et al., Biochem. Biophys. Res. Commun., vol. 271, pp. 575-583, 2000). Further, based on the information of cDNA sequence of human PDE8A (Genbank/EMBL Accession No. AF388183), a cDNA encoding human PDE8A was cloned by PCR method, according to a method described in Gamanuma et al. (Gamanuma et al., Cell Signal, 2003, vol. 15, pp. 565-574). Further, a cDNA encoding human PDE11A was obtained, according to a method reported in Yuasa et al. (Yuasa et al., J. Biol. Chem., vol. 275, pp. 31469-31479, 2000). Using these cDNAs, recombinant proteins of human PDE7A, human PDE8A, and human PDE11A were prepared as follows.
DNA fragments comprising a cDNA encoding human PDE7A, human PDE8A or human PDE11A were linked to pcDNA4/HisMax (available from Invitrogen), to give a vector plasmid for expression of human proteins, with a histidine tag peptide (hexahistidine), added to the N-terminus. COS-7 cells were transfected with these vector plasmids, and the cells were cultured in Dulbecco's modified Eagle medium containing 10% bovine fetal serum for about 24 hours. […]

A further test deals with marmoset MPTP model. Put plainly: Marmoset MPTP model, effect on bromocriptine efficacy. The test is classed as in vivo. The settings on record: together with bromocriptine (0.3 mg/kg), versus vehicle with bromocriptine. As for the experimental part: Using bromocriptine (bromocriptine mesilate) as a dopamine receptor agonist, effect of test compound on pharmaceutical effects caused by administration of dopamine receptor agonist, in marmoset MPTP model was tested as follows.
The same method was employed as in Example 6, except for using bromocriptine (bromocriptine mesilate) in place of L-dopa and benserazide.
Each test was performed with respect to the same individual sequentially, and intervals of 5 days or more were allowed between the tests. • test 1: vehicle • test 2: vehicle and bromocriptine mesilate • test 3: test compound (PDE10 inhibitor) and bromocriptine mesilate
[…] Further, as test compounds, compounds confirmed with PDE10 inhibitory activities were administered via saphenous vein, 90 minutes before administration of bromocriptine mesilate, under anesthesia by ketamine and isoflurane (In test 1 and test 2, only vehicle was administered in place of the test compound in the same manner).
Bromocriptine mesilate was suspended in 0.5% methylcellulose solution on the day of administration and used. Test compound (PDE10 inhibitor) was dissolved in a solvent 30 minutes before administration and used.
After administration of test compound (PDE10 inhibitor) (or vehicle) and bromocriptine mesilate, locomotor activity and motor disability score were evaluated for each individual, in the same manner as in Example 6. […]

T1 sequence (O60658 whole entry): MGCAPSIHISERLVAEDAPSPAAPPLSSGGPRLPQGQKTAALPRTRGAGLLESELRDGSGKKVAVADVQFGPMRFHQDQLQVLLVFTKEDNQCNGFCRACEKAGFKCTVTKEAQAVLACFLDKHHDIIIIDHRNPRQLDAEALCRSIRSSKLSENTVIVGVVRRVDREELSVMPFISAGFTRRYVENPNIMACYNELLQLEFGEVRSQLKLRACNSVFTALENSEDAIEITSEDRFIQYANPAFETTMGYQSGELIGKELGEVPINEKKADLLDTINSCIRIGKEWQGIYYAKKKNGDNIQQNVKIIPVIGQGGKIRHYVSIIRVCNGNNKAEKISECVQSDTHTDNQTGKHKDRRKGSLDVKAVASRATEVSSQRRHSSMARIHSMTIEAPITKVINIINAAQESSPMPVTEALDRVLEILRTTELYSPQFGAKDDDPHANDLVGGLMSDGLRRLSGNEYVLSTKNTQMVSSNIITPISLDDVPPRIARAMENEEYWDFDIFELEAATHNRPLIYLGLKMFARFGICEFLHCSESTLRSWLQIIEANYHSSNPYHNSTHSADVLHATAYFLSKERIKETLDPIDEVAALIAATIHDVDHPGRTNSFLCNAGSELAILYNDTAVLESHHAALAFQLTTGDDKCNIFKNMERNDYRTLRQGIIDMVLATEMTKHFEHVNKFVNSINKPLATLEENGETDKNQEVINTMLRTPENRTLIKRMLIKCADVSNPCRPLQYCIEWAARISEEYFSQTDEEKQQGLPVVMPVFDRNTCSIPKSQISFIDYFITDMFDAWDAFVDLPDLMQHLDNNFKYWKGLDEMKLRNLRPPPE

As a reminder, the pIC50 is the IC50 on a negative log10 scale, so that one unit is a factor of ten. Take `COc1ccc(-c2cc(N3CCCC3)nc(/C=C/c3nc(-n4ccnc4)c4ccccc4n3)n2)cc1OC` [Compound A, 2-{(E)-2-[4-(1-imidazolyl)-quinazolin-2-yl]}ethenyl-4-(3,4-dimethoxy)phenyl-6-(pyrrolidin-1-yl)pyrimidine]: the pIC50 on PDE8 (PDE8A) is under 6.00. In addition, the “effects of bromocriptine to alleviate symptoms (locomotor activity and motor disability score)” value in the test on marmoset MPTP model was “had a tendency to enhance the effects of bromocriptine to alleviate symptoms”.
